Columns and labels:
SK-BR-3 = assay: Antiproliferative activity against human SK-BR-3 cells; type: functional, cell-based
MCF7 [1] = assay: Antiproliferative activity against human MCF7 cells; type: functional, cell-based
[2] = Inhibition of Hsp90 N-terminal assessed as increase in Hsp70 level
[3] = Inhibition of Hsp90 N-terminal assessed as AKt degradation by Western blotting
[4] = Inhibition of Hsp90 N-terminal assessed as Her2 degradation by Western blotting
[5] = Inhibition of Hsp90 N-terminal assessed as c-RAF degradation by Western blotting
MCF7 [6] = assay: Selectivity ratio of IC50 for human SKBr3 cells to IC50 for human MCF7 cells; type: functional

IC50 (SK-BR-3)	IC50 (MCF7 [1])	Activity [2]	Activity [3]	Activity [4]	Activity [5]	Compound	Ratio IC50 (MCF7 [6])
12.5 µM	11.8 µM					COC1=C(C/C=C2/CCc3c(Cl)c(O)cc(O)c3C2=O)C(=O)C(NC=O)=CC1=O	
10.5 µM	9.5 µM	Dose-dependent effect	Dose-dependent effect	Dose-dependent effect	Dose-dependent effect	COc1c(O)cc(NC=O)c(O)c1CCC1CCc2c(Cl)c(O)cc(O)c2C1=O (stereo not drawn)	
	13.9 µM					COC1=C(CC(C)OC(=O)c2cc(Cl)c(O)cc2O)C(=O)C(NC=O)=CC1=O (stereo not drawn) [RADESTER]	
12.8 µM	11.4 µM					COC1=C(CCC2CCc3c(Cl)c(O)cc(O)c3C2=O)C(=O)C(NC=O)=CC1=O (stereo not drawn)	
0.0158 µM	0.0161 µM					COC1=C2C[C@@H](C)C[C@H](OC)[C@H](O)[C@@H](C)/C=C(\C)[C@H](OC(N)=O)[C@@H](OC)/C=C\C=C(/C)C(=O)NC(=CC1=O)C2=O [GELDANAMYCIN]	
42.1 µM	12.9 µM	Dose-dependent effect	Dose-dependent effect	Dose-dependent effect	Dose-dependent effect	COc1c(O)cc(NC=O)c(O)c1CCC1Cc2c(Cl)c(O)cc(O)c2C1=O (stereo not drawn)	3
47.3 µM	15.1 µM					COC1=C(CCC2Cc3c(Cl)c(O)cc(O)c3C2=O)C(=O)C(NC=O)=CC1=O (stereo not drawn)	3
40.8 µM	15.2 µM					COC1=C(C/C=C2/Cc3c(Cl)c(O)cc(O)c3C2=O)C(=O)C(NC=O)=CC1=O	3

Compound	IC50 (SK-BR-3)	IC50 (MCF7 [1])	Activity [2]	Activity [3]	Activity [4]	Activity [5]	Ratio IC50 (MCF7 [6])
C[C@@H]1C[C@H]2O[C@@H]2/C=C\C=C\C(=O)Cc2c(Cl)c(O)cc(O)c2C(=O)O1 [RADICICOL]	0.0375 µM	0.0477 µM					
